This note sets out measurements from patent publication US20170342136A1, “MONOCLONAL ANTIBODY AGAINST MURAMYL PEPTIDES IN PREVENTION AND TREATMENT OF IMMUNE-MEDIATED DISEASES” (Agency for Science, Technology and Research, priority 2015, published 2017).

The subject of test [1] is Collagen Induced Arthritis (CIA) mouse model. As to the kind of experiment: Collagen Induced Arthritis (CIA) mouse model with implanted osmotic pump releasing MDP. It is filed as in vivo, DBA/1J mice. Here is the method:
(A) illustrates the subcutaneous implantation of an osmotic pump loaded with 200 µl of 5 mg/ml MDP and released at a rate of 0.25μ1/hr onto the back of a mouse.
DBA/1J mice were induced to develop arthritis by immunization with an emulsion of complete Freund's adjuvant and type II collagen, and each mouse also carried an implanted pump as described in FIG. 5 that releases either PBS or MDP at 0.25 μl/hr.

The next test deals with Escherichia coli. The test can be described thus: MPs in culture supernatant with or without amoxicillin, competitive ELISA using 2E7. The format is cell-based. The conditions noted are these: 40 μg per ml amoxicillin added at OD600=1.5. Here is the method:
(§1) The standard curve was used to determine the peptidoglycan concentration in a sample. […] Both bacteria were grown to OD600=1.5. Each culture was divided into two, and one treated with 40 μg/ml amoxicillin (Amx) and the other untreated. Aliquots were collected at the indicated times and the amount of MPs in the supernatant was determined by competitive ELISA. […] After removing unbound antibodies by PBS washes, the cells were incubated with a FITC-labeled anti-mouse IgG Ab before fluorescence microscopic examination.
(§2) For this test, Gram-positive bacterium Staphylococcus aureus, which has a thick peptidoglycan layer, and Gram-negative Escherichia coli, which has a thin peptidoglycan layer, were selected and grown in the presence or absence of amoxicillin. The culture was grown to a density of OD600=1.5 and then divided into two equal aliquots. To one aliquot, amoxicillin was added to a final concentration of 40 μg per ml, and to the other aliquot, no drug was added. Both cultures were allowed to continue to grow. Aliquots of cultures were collected at timed intervals and cells were removed by centrifugation. The amount of MPs in the supernatant was determined by competitive ELISA using 2E7.
A general note: ELISA stands for enzyme-linked immunosorbent assay.

For another test, the system named is Staphylococcus aureus. Described as above. The format is cell-based. The conditions noted are these: 40 μg per ml amoxicillin added at OD600=1.5. The method, then:
as §1, §2

The nature of test [2]: Blood MP level after oral amoxicillin, competitive ELISA using 2E7. The format is in vivo, mice. The conditions noted are these: 100 mg/kg oral at 12-h intervals, 4 h after each feeding. The method, then:
Amoxicillin was administered orally to 50 mice at 12-h intervals and three mice were sacrificed every 4 h to collect blood for peptidoglycan quantification by ELISA. […] Serial blood samples were taken. Time for blood draw and IV injection are indicated.
The MP level in serum was determined by competitive ELISA using an example of the antibody of the present disclosure, i.e. 2E7.

As to `CC(=O)N[C@@H]1[C@@H](O[C@H](C)C(=O)N[C@@H](C)C(=O)N[C@H](CCC(=O)O)C(N)=O)[C@H](O)[C@@H](CO)O[C@H]1O` [MDP], the clinical paw scores result in test [1] (increase in MDP concentration, time dependent, n=4) is reported as “increased clinical paw scores”. In test [1] (pump releasing MDP at 0.25 μl/hr vs PBS), the “development of rheumatoid arthritis” value was “promoted the development of rheumatoid arthritis”.

Turning to `CC1(C)S[C@@H]2[C@H](NC(=O)[C@H](N)c3ccc(O)cc3)C(=O)N2[C@H]1C(=O)O` [amoxicillin], the “molecules in culture medium that inhibit 2E7 binding to MDP” value in the test on Escherichia coli and with Staphylococcus aureus was “sharp increase” each time. Besides, the “increase in the blood MP level” value in test [2] is recorded as 20-60%.
